Here are results for 17 compounds from ChEMBL document CHEMBL1933060, “Discovery of novel 5-alkynyl-4-anilinopyrimidines as potent, orally active dual inhibitors of EGFR and Her-2 tyrosine kinases” (Bioorg Med Chem Lett, 2012).

Active and inactive are the calls of the source. The rule behind the calls is not given here.

Data set [1] concerns NCI-N87. Nature of the data set: Antitumor activity against human NCI-N87 cells xenografted in athymic mouse assessed as tumor volume at 80 mg/kg, po QD for 14 days measured after 19 days relative to control. The class given is functional. (In xenograft studies the graft and the host belong to different species.)
Data set [2] relates to NCI-N87. Nature of the data set: Antitumor activity against human NCI-N87 cells xenografted in athymic mouse assessed as tumor volume at 20 mg/kg, po QD for 14 days measured after 19 days relative to control. The class given is functional.
Data set [3] concerns the target Epidermal growth factor receptor (Homo sapiens, UniProt P00533). Nature of the data set: Inhibition of EGFR by time-resolved fluorescence assay.
For data set [4], the target named is Receptor tyrosine-protein kinase erbB-2 (Homo sapiens, UniProt P04626). Description: Inhibition of Her-2 by time-resolved fluorescence assay.
Receptor tyrosine-protein kinase erbB-2, sequence (P04626 whole entry): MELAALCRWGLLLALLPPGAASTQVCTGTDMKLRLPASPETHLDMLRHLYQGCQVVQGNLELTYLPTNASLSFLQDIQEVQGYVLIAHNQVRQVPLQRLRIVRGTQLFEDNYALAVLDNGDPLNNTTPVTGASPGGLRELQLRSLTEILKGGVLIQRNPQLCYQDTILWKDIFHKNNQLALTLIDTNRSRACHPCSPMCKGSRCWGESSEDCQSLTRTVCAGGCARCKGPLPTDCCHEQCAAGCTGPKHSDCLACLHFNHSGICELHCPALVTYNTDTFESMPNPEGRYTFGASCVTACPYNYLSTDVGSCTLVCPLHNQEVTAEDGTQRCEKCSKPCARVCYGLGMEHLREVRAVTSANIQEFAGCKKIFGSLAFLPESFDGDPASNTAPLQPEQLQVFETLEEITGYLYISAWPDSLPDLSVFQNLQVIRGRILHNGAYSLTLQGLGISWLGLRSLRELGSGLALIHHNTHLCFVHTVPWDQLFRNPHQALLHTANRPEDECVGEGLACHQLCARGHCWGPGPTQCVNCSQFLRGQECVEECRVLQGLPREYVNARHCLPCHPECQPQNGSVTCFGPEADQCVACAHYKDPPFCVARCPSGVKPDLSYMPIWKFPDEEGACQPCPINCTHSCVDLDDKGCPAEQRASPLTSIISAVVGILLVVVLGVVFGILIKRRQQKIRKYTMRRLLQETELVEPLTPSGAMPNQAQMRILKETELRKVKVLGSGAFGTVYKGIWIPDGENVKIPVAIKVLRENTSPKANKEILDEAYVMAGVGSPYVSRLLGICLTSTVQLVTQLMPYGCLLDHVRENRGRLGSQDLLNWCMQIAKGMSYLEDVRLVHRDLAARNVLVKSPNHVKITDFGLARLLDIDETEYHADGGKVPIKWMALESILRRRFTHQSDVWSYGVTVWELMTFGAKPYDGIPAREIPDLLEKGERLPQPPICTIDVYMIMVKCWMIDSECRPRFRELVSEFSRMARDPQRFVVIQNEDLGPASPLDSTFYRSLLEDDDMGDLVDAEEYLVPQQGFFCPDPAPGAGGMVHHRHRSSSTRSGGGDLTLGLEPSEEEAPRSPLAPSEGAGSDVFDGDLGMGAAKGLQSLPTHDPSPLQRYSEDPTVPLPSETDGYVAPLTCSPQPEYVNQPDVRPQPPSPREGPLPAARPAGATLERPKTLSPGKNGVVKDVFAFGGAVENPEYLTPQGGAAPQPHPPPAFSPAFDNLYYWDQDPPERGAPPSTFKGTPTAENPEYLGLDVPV
Data set [5] can be described thus: Metabolic stability of the compound in rat liver microsomes assessed as compound remaining after 30 mins. The class given is ADME, Microsome. The settings on record: read-out: Stability. A general note: Liver microsomes are a subcellular fraction often used to study metabolism.
In data set [6] the target is Platelet-derived growth factor receptor beta (Homo sapiens, UniProt P09619). Nature of the data set: Inhibition of PDGFRbeta.
For another data set, the target named is T1, Aurora kinase A (Homo sapiens, UniProt O14965).
T1 sequence (O14965 whole entry): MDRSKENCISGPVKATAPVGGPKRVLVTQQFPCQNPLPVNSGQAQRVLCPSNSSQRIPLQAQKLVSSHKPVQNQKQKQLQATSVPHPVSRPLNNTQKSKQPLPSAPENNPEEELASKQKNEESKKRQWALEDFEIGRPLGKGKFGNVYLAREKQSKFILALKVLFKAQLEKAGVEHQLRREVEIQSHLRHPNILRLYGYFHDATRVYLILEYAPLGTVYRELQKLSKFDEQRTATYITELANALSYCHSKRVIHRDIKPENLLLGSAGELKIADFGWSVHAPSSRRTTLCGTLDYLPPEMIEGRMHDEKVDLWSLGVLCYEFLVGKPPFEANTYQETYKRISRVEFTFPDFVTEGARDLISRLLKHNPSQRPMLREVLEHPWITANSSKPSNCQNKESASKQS
Nature of the data set: Inhibition of Aurora A.

The target of data set [7] is Tyrosine-protein kinase Lck (Homo sapiens, UniProt P06239). Description: Inhibition of Lck.
Tyrosine-protein kinase Lck, sequence (P06239 whole entry): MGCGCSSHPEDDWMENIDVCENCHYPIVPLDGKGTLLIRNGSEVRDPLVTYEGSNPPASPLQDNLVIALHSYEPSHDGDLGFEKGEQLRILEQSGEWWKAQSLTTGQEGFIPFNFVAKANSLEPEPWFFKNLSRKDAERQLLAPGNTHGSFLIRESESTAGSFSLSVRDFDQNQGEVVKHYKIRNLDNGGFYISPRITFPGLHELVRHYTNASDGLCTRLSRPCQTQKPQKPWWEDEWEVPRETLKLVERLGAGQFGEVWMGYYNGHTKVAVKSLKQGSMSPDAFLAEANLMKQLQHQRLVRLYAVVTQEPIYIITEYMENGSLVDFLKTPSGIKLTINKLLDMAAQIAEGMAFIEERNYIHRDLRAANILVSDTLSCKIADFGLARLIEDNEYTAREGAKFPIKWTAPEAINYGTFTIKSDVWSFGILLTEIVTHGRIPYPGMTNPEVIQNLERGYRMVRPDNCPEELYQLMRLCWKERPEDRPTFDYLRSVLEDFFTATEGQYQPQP
Data set [8] in a line: Oral bioavailability in rat. The settings on record: in vivo. The class given is ADME, organism-based.
Data set [9] relates to NCI-N87. Nature of the data set: Antitumor activity against human NCI-N87 cells xenografted in athymic mouse assessed as tumor growth inhibition at 20 mg/kg, po QD for 14 days measured after 19 days. The class given is functional, organism-based. Also noted: dose 20 mg/kg.
Data set [10] can be described thus: Metabolic stability of the compound in human liver microsomes assessed as compound remaining after 30 mins. The class given is ADME, Microsome. The note with it: read-out: Stability.
Data set [11] can be described thus: AUC in po dosed rat. The class given is ADME, organism-based. The settings on record: plasma.
For the next data set, the target named is Insulin receptor (Homo sapiens, UniProt P06213). Nature of the data set: Inhibition of INSR.
Insulin receptor, sequence (P06213 28-758 limits assumed): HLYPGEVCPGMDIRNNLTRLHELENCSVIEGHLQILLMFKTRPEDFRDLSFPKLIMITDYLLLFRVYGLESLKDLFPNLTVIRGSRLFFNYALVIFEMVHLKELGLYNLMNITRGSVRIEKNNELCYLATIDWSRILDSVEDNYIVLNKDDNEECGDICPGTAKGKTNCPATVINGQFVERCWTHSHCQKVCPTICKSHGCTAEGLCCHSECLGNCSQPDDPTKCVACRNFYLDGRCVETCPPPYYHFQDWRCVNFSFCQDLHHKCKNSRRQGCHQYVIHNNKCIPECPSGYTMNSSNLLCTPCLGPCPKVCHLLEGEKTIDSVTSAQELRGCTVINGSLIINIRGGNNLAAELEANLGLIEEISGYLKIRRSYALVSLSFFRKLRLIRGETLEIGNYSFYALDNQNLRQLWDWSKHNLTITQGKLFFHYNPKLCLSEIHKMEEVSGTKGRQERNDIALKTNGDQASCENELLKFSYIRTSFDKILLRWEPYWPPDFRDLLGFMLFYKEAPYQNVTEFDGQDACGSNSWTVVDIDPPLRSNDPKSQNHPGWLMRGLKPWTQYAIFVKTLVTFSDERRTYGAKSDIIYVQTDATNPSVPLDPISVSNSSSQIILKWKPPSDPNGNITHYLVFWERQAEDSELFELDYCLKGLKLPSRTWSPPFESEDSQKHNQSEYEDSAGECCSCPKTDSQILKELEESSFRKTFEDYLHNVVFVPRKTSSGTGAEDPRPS
Insulin receptor, sequence (P06213 763-1382 limits assumed): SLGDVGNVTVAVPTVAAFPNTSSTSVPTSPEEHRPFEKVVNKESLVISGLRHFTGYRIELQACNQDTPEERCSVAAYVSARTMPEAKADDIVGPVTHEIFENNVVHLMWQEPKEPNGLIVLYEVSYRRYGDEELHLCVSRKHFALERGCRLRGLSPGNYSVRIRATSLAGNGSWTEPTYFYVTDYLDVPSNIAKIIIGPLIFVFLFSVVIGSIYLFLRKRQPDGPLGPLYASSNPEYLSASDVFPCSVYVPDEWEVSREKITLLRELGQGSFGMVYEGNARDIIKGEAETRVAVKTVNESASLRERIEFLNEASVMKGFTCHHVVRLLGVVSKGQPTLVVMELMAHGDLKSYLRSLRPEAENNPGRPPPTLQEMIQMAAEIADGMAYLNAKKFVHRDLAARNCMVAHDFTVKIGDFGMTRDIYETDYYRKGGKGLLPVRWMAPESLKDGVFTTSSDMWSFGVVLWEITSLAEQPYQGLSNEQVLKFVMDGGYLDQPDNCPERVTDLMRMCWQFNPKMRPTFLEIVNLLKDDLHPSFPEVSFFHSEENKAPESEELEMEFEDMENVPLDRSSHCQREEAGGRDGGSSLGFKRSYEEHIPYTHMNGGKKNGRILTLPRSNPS
A short description of data set [12]: Total clearance in iv dosed rat. The class given is ADME, organism-based. The settings on record: in vivo.
In data set [13] the test system is NCI-N87. Nature of the data set: Antiproliferative activity against human NCI-N87 cells after 3 days by methylene blue staining. The class given is functional, cell-based. The settings on record: NCI-N87, 72 h.
A short description of data set [14]: Aqueous solubility of the compound at pH 7.4. The class given is physicochemical.
For data set [15], the system named is NCI-N87. Nature of the data set: Antitumor activity against human NCI-N87 cells xenografted in athymic mouse assessed as tumor growth inhibition at 80 mg/kg, po QD for 14 days measured after 19 days. Also noted: dose 80 mg/kg. The class given is functional, organism-based.
The test system of the next data set is BT-474. Nature of the data set: Antiproliferative activity against human BT474 cells after 3 days by methylene blue staining. The class given is functional, cell-based. The note with it: BT-474, 72 h.
Data set [16] concerns the target Vascular endothelial growth factor receptor 2 (Homo sapiens, UniProt P35968). Description: Inhibition of VEGFR2.

One may read the IC50 as the concentration that inhibits the measured activity by half. Usually bioavailability stands for the share of a dose that reaches the circulation, judged against a reference dose that is usually intravenous. A word on the AUC: it is the area under the concentration-time curve, a measure of exposure. A higher AUC goes with more exposure. In general, clearance refers to the rate of elimination divided by the concentration. A lower clearance goes with inefficient removal. One may read the solubility as how much of the substance goes into solution per volume.

Epidermal growth factor receptor, sequence (P00533 whole entry): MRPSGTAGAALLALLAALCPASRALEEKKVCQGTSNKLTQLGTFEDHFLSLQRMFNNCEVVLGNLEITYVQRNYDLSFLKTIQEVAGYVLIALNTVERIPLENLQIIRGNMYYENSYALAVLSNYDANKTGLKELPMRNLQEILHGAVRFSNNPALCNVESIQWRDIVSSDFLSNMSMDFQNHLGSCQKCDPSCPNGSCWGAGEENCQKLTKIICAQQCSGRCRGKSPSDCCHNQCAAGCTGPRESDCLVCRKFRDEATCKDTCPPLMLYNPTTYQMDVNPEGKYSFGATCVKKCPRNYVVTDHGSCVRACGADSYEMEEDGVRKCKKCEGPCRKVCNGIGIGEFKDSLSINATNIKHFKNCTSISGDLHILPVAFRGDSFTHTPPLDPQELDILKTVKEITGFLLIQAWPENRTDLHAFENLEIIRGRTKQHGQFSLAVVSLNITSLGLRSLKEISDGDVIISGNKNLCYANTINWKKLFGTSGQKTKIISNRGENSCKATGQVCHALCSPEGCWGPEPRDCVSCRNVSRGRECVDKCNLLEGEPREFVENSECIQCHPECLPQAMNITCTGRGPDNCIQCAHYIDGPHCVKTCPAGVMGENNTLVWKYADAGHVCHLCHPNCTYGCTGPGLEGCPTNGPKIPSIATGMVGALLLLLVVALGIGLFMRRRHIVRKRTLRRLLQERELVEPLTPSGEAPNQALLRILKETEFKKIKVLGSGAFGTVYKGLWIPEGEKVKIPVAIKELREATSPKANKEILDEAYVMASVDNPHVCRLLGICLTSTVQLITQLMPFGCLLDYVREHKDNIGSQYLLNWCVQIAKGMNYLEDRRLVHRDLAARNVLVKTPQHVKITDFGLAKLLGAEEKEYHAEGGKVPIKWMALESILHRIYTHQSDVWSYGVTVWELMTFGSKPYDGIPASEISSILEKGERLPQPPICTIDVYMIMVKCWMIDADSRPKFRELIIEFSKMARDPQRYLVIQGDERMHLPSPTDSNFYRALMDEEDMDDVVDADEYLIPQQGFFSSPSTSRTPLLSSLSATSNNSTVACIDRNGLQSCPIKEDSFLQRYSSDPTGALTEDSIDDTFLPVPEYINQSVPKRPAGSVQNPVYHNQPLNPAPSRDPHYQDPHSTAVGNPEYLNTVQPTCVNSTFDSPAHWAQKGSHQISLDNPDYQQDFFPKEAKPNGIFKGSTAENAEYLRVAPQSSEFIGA

Turning to `CS(=O)(=O)CCNCc1ccc(-c2ccc3ncnc(Nc4ccc(OCc5cccc(F)c5)c(Cl)c4)c3c2)o1.Cc1ccc(S(=O)(=O)O)cc1.Cc1ccc(S(=O)(=O)O)cc1.O` [LAPATINIB DITOSYLATE], the T/C is reported as 0.37 in the data set with NCI-N87 [1] and 0.57 in the data set on NCI-N87 [2].

`Cc1ncnc(Nc2ccc(OCc3cccc(F)c3)c(Cl)c2)c1C#Cc1ccccc1`: the IC50 in [3] turned out to be 650 nM; in data set [4] it was 750 nM.

Consider `Cc1ncnc(Nc2ccc(OCc3cccc(F)c3)c(Cl)c2)c1C#Cc1ncc(CN2CCCC2)s1`, for which the IC50 came to 74 nM in data set [3] and 110 nM in data set [4].

Consider `Cc1ncnc(Nc2ccc(OCc3cccc(F)c3)c(Cl)c2)c1C#Cc1ccc(CN2CCCC2)c(F)c1`, for which the remaining at 0.5 h stood at 63% in [5] and 24% in data set [10]. The IC50 was > 100000 nM in [6]; > 100000 nM at Aurora kinase A; > 100000 nM in [7]; 190 nM in data set [3]; 62 nM in data set [4]; > 100000 nM against Insulin receptor. Besides, the IC50 is 60 nM with NCI-N87 [13], 50 nM with BT-474 and > 100000 nM in data set [16]. In addition, the bioavailability in data set [8] was 35%. The “growth inhibition (GI)” value in the data set with NCI-N87 [9] and in the data set with NCI-N87 [15] was “Active” throughout. This compound also returned an area under the curve (AUC) in data set [11] of 361 ng·h/mL. Moreover, the T/C is on record as 0.54 with NCI-N87 [1] and 0.56 in the data set on NCI-N87 [2]. Besides, in [12], the clearance came to 18 mL/min/kg. Further, the solubility in data set [14] is > 50 µM.

As for `Cc1ncnc(Nc2ccc(OCc3cccc(F)c3)c(Cl)c2)c1/C=C/c1ccc(CNCCS(C)(=O)=O)cc1`, the IC50 in data set [4] was 120 nM; in the data set with NCI-N87 [13], 780 nM; in the data set on BT-474, 640 nM.

As for `Cc1ncnc(Nc2ccc(OCc3cccc(F)c3)c(Cl)c2)c1C#CCOc1ccc(CNC(C)C)cc1`, the IC50 in [3] was determined as 86 nM; in data set [4] it was 130 nM.

With `Cc1ncnc(Nc2ccc(OCc3cccc(F)c3)c(Cl)c2)c1C#Cc1cccc(CN(C)C)c1`, the results for the IC50 in data set [3] and in data set [4] were 55 nM and 73 nM, respectively.

As for `Cc1ncnc(Nc2ccc(OCc3cccc(F)c3)c(Cl)c2)c1C#Cc1ccc(CN2CCCC2)cc1`, the IC50 in data set [3] was 9 nM; in data set [4], 41 nM.

As to `Cc1ncnc(Nc2ccc(OCc3cccc(F)c3)c(Cl)c2)c1/C=C/c1ccc(CNC(C)C)cc1`, the IC50 stood at 24 nM in [3] and 30 nM in [4].

Regarding `Cc1ncnc(Nc2ccc(OCc3cccc(F)c3)c(Cl)c2)c1C#Cc1ccc(CNCCS(C)(=O)=O)cc1`, the IC50 came out at 22 nM in data set [3] and 220 nM in data set [4].

Regarding `Cc1ncnc(Nc2ccc(OCc3cccc(F)c3)c(Cl)c2)c1C#Cc1ccc(CN(C)C)cc1`, the concentration for half-maximal inhibition (IC50) came to 7 nM in data set [3] and 41 nM in [4].

For the compound `CS(=O)(=O)CCNCc1ccc(-c2ccc3ncnc(Nc4ccc(OCc5cccc(F)c5)c(Cl)c4)c3c2)o1`, the “growth inhibition (GI)” value in the data set with NCI-N87 [9] is “Active”.

For `Cc1ncnc(Nc2ccc(OCc3cccc(F)c3)c(Cl)c2)c1C#Cc1ccc(CNC(C)C)cc1`, the IC50 in data set [3] is 3 nM; in data set [4] it was 18 nM; in the data set on NCI-N87 [13], 240 nM; in the data set with BT-474 it was 170 nM.

As for `Cc1ncnc(Nc2ccc(OCc3cccc(F)c3)c(Cl)c2)c1C#Cc1ccc(CN2CCCC2)s1`, the IC50 in data set [3] is 30 nM; in data set [4], 180 nM; in the data set on NCI-N87 [13] it was 690 nM; in the data set on BT-474, 410 nM.

Turning to `Cc1ncnc(Nc2ccc(OCc3cccc(F)c3)c(Cl)c2)c1/C=C/c1ccc(CNC2CC2)cc1`, the IC50 in data set [3] was determined as 98 nM; in [4] it was 86 nM.

Regarding `CS(=O)(=O)CCNCc1ccc(-c2ccc3ncnc(Nc4ccc(OCc5cccc(F)c5)c(Cl)c4)c3c2)o1` [LAPATINIB], the IC50 in the data set with NCI-N87 [13] is 90 nM; in the data set with BT-474 it was 100 nM.

On to `Cc1ncnc(Nc2ccc(OCc3cccc(F)c3)c(Cl)c2)c1C#Cc1ccc(CN2CCCC2)o1`, for which the IC50 in data set [3] was determined as 79 nM; in [4] it was 140 nM; in the data set on NCI-N87 [13], 1360 nM; with BT-474 it was 810 nM.
